Common to all, as to type: biochemical
Experiment [1] addresses T1, rhNaglu (Homo sapiens, UniProt P54802).
T1 construct: The N-terminal 23 amino acids are cleaved as the precursor protein enters the endoplasmic reticulum, resulting in a mature form; made in house; host or cells: human fibrosarcoma HT1080 cell clone over-expressing rhNaglu
T1 sequence (P54802 24-743): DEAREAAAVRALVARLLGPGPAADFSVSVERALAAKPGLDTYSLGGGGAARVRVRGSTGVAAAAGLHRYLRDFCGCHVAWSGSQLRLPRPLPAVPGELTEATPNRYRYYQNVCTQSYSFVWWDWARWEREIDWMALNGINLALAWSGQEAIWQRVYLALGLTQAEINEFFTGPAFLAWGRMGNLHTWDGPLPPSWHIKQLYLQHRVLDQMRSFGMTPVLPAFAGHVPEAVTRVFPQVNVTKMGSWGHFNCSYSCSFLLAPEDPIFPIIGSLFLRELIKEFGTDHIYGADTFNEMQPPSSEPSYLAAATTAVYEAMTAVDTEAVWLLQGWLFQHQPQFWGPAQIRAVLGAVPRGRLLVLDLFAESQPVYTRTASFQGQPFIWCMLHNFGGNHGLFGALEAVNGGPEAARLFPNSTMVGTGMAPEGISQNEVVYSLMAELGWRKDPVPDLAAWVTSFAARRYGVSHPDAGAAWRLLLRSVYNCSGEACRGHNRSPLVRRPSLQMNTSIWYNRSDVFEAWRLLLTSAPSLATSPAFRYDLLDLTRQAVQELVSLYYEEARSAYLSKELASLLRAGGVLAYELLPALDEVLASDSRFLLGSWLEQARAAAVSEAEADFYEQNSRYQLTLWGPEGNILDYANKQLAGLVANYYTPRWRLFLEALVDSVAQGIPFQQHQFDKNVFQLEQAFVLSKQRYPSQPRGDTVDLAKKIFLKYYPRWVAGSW
The experiment is described as follows: Naglu activity assay with various inhibitors (4MU-GlcNAc fluorescent substrate). To be noted: added at 0.0625, 0.25, 1, 4 and 8 mM; 37° C., 1 hour, pH 4.5. How it is done:
A 10 mM stock of Naglu activity substrate solution was prepared by dissolving 5 mg of substrate, i.e., 4-methylumbelliferyl-N-acetyl-α-D-glucosaminide, in 250 μl of 100% DMSO. Naglu activity assay reaction buffer (0.1 M sodium acetate, 0.5 mg/ml BSA, pH 4.5) was then added to bring the volume up to 1318 μl. This 10 mM substrate stock solution was then diluted 10 fold with reaction buffer to make the final 1 mM substrate solution.
Samples and controls were pre-diluted in reaction buffer. 10 μl of each pre-diluted sample/control were applied in duplicate wells on a black clear bottom 96 well plate. 75 μl of 1 mM substrate solution containing various concentrations of inhibitors were added to each well. The plates were sealed with plate sealer and wrapped with aluminum foil. The plates were then placed in a Boekel Jitterbug Microplate Incubator Shaker (Cole-Parmer, Vernon Hills, Ill.) and shaken (setting at #1) at 37° C. for 1 hour. 200 μl of Stop Buffer (0.2 M Glycine, pH 10.7) were then added to all of the wells and fluorescence emission (excitation/emission at 360 nm/460 nm, respectively) was measured using a SpectraMax® Plus M2 plate reader from Molecular Devices (Sunnyvale, Calif.).
To further confirm that rhNaglu could hydrolyze UDP-GlcNAc, we investigated whether UDP-GlcNAc inhibited the hydrolysis by rhNaglu of the fluorescent substrate 4MU-GlcNAc (4-methylumbelliferyl-N-acetyl-α-D-glucosaminide) in a Naglu activity assay. Briefly, UDP-GlcNAc, as well as GlcNAc, UDP-GalNAc and Glucosamine, were added to the Naglu activity assay at 0.0625, 0.25, 1, 4 and 8 mM concentrations. The fluorescence emitted from these samples was compared to control samples only including rhNaglu and 4MU-GlcNAc.

The target of experiment [2] is T1, rhNaglu. Briefly: Isothermal titration calorimetry (ITC) of UDP-GlcNAc hydrolysis by rhNaglu. To be noted: preliminary ITC data. The text has this:
The reduction of the UDP-GlcNAc substrate in the samples containing rhNaglu (FIG. 3A) and the formation of the reaction product GlcNAc in the samples containing rhNaglu (FIG. 3B) was apparent. The reductions of UDP-GlcNAc and the formation of GlcNAc were dependent on the initial concentration of UDP-GlcNAc in the reaction sample.

Experiment [3] concerns the target T1, rhNaglu. Briefly: Naglu substrate analysis: hydrolysis of UDP-sugars by rhNaglu, PAD-HPLC. To be noted: 0.8 mM UDP-sugar, rhNaglu 2.6 to 2,000 μg/ml, Tris pH 7.15, 37° C., 1 hour. How it is done:
Recombinant human Naglu was co-incubated with uridine diphosphate N-acetylglucosamine (UDP-GlcNAc) or uridine diphosphate N-acetyl galactosamine (UDP-GalNAc). UDP-GlcNAc, GlcNAc (N-acetylglucosamine) and UDP-GalNAc were detected using PAD-HPLC (Pulsed Amperometric Detection-High Pressure Liquid Chromatography) that was modified after Chavaroche et al. 2011.
Recombinant human Naglu was dialyzed into Tris buffer (40 mM Tris pH 7.15, 100 mM NaCl, 4 mM MgCl2, and 4 mM MnCl2) and concentrated with VivaSpin® sample concentrators having a 30 kDa cut-off (Viva Products, Inc., Littleton, Mass.). […]
Samples were then subjected to centrifugation at 10,000 rpm, and the resulting supernatants were loaded on PA10 columns and detected by PAD-HPLC (Pulsed Amperometric Detection-High Pressure Liquid Chromatography) (Dionex ICS-3000 Ion Chromatography System (Thermo Fisher Scientific, Inc., Sunnyvale, Calif.)). […] The peak areas for the eluted UDP-GlcNAc were measured, and the reductions of the area under the curve (AUC) in response to increased concentrations of rhNaglu were determined (FIG. 1A). A new peak at 10.7 minutes was detected on the chromatograms of samples treated with concentrations of rhNaglu of 23.4 μg/ml and above. […] The peak areas for the eluted GlcNAc were measured, and the increases of the AUC in response to increased concentrations of rhNaglu were determined (FIG. 1B). […]

The values below come from patent US20170267986A1, “GENERATION OF MANNOSE-6-PHOSPHATE CONTAINING RECOMBINANT ALPHA-N-ACETYL GLUCOSAMINIDASE” (SHIRE HUMAN GENETIC THERAPIES, INC., priority 2014, published 2017).

For “uridine diphosphate N-acetylglucosamine [UDP-GlcNAc]”, in experiment [1], the “inhibition of rhNaglu activity toward 4MU-GlcNAc” value was “Inhibition”. In experiment [2], the “Km of hydrolysis by rhNaglu” value is listed as “milimolar range”. Besides, the “hydrolysis by rhNaglu” value in experiment [3] was “hydrolyses”.
